Measurements published in US20120329787A1, “FUNGICIDAL PYRANONES AND OXAZINONES” (E.I. DU PONT DE NEMOURS AND COMPANY, priority 2011, published 2012).

Assays:
Type in all cases: in vivo
[1] = system: Erysiphe graminis f. sp. tritici; assay: Test I: wheat powdery mildew, spray on wheat seedlings the day before inoculation; settings: 200 ppm test suspension
How it was run: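 Wheat seedlings sprayed to run-off with compound at 200 ppm (40 ppm where marked; 200 ppm ≈ 500 g/ha) in acetone/water with 250 ppm surfactant. Inoculated next day with E. graminis spore dust; visual disease rating after 7 days at 20° C.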

Rhizoctonia solani = assay: Test D: turf brown patch, spray on creeping bent grass seedlings the day before inoculation; settings: 200 ppm test suspension
From the text: General protocol for preparing test suspensions for Tests A-I: the test compounds were first dissolved in acetone in an amount equal to 3% of the final volume and then suspended at the desired concentration (in ppm) in acetone and purified water (50/50 mix by volume) containing 250 ppm of the surfactant Trem® 014 (polyhydric alcohol esters). The resulting test suspensions were then used in Tests A-I. Spraying a 200 ppm test suspension to the point of run-off on the test plants was the equivalent of a rate of 500 g/ha. […] (An asterisk “*” next to the rating value indicates a 40 ppm test suspension was used.) The test suspension was sprayed to the point of run-off on creeping bent grass (Agrostis sp.) seedlings. The following day, the seedlings were inoculated with a bran and mycelial slurry of Rhizoctonia solani (the causal agent of turf brown patch) and incubated in a saturated atmosphere at 27° C. for 48 h, and then moved to a growth chamber at 27° C. for 3 days, after which time disease ratings were made. […] A dash (-) indicates no test results. All results are for 200 ppm except where followed by an asterisk “*”, which indicates a 40 ppm.

[2] = system: Puccinia recondita f. sp. tritici; assay: Test H: wheat leaf rust, spray on wheat seedlings the day before inoculation; settings: 200 ppm test suspension, sprayed before inoculation
How it was run: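 Wheat seedlings sprayed to run-off with compound suspensions (acetone/water with surfactant; 200 ppm ≈ 500 g/ha, or 40 ppm), inoculated next day with rust spores. Plants kept 24 h in saturated atmosphere at 20 °C, then 6 days in a 20 °C growth chamber before visual disease rating.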

Phytophthora infestans = settings: 200 ppm test suspension; tomato seedlings
Botrytis cinerea = assay: Test A: tomato Botrytis, spray on tomato seedlings the day before inoculation; settings: 200 ppm test suspension
How it was run: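 Tomato seedlings sprayed to run-off with compound suspension (200 ppm, ≈500 g/ha; some at 40 ppm) in acetone/water with 250 ppm Trem 014, inoculated next day with Botrytis cinerea spores. Held 48 h saturated at 20 °C, then 3 days at 24 °C; disease rated visually.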

Septoria nodorum = assay: Test E: Septoria glume blotch, spray on wheat seedlings the day before inoculation; settings: 200 ppm test suspension
How it was run: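 Compounds in acetone/water (50/50) with 250 ppm Trem 014 surfactant, sprayed to run-off on wheat seedlings the day before Septoria nodorum inoculation. Tested at 200 ppm (equivalent to 500 g/ha) unless marked 40 ppm.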

Alternaria solani = assay: Test B: tomato early blight, spray on tomato seedlings the day before inoculation; settings: 200 ppm test suspension
How it was run: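 Tomato seedlings sprayed to run-off with 200 ppm suspension (40 ppm where asterisked), inoculated next day with Alternaria solani spores. Kept 48 h at 27 °C in saturated atmosphere, then 5 days at 20 °C before visual disease rating.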

Septoria tritici = assay: Test F: wheat leaf blotch, spray on wheat seedlings the day before inoculation; settings: 200 ppm test suspension
How it was run: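 Wheat seedlings sprayed to run-off with 200 ppm (≈500 g/ha) or 40 ppm suspension in acetone/water with 250 ppm Trem 014. Next day inoculated with Septoria tritici spores, held 48 h saturated at 24° C, then 19 days at 20° C before visual disease rating.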

| SMILES | Test I rating (100 = 100% disease control, 0 = no disease control) [1] [%] | Test D rating (100 = 100% disease control, 0 = no disease control) (Rhizoctonia solani) [%] | Test H rating (100 = 100% disease control, 0 = no disease control) [2] [%] | Test C rating (100 = 100% disease control, 0 = no disease control) (Phytophthora infestans) [%] | Test A rating (100 = 100% disease control, 0 = no disease control) (Botrytis cinerea) [%] | Test E rating (100 = 100% disease control, 0 = no disease control) (Septoria nodorum) [%] | Test B rating (100 = 100% disease control, 0 = no disease control) (Alternaria solani) [%] | Test F rating (100 = 100% disease control, 0 = no disease control) (Septoria tritici) [%] |
| --- | --- | --- | --- | --- | --- | --- | --- | --- |
| Cc1noc(=O)c(-c2c(F)cc(F)cc2F)c1-c1ccc(Cl)cc1 [Compound 3] | 99 | 78 | 98 | 9 | 99 | 0 | 100 | 99 |
| Cc1noc(=O)c(-c2cccc(F)c2)c1-c1c(F)cccc1F [Compound 4] | 0 | 0 | 0 | 8 | 0 | 0 | – | 0 |
| Cc1noc(=O)c(-c2c(F)cc(F)cc2F)c1-c1ccc(Cl)c(F)c1 [Compound 16] | 0 | 0 | 0 | 0 | 0 | 0 | 0 | 97 |
| COc1cc(OC)cc(-c2c(-c3ccccc3F)noc(=O)c2-c2ccc(F)cc2F)c1 [Compound 21] | 0 | 0 | 0 | 0 | 0 | 0 | 0 | 0 |
| COc1cc(OC)cc(-c2c(-c3ccccc3F)noc(=O)c2-c2c(F)cccc2F)c1 [Compound 22] | 0 | 8 | 0 | 0 | 0 | 0 | 0 | 0 |
